According to the supplement of paper PMC10331698:
± gives the standard deviation of the averaged measurements.

Experiments:
Assay in all cases: level (log10 ratio to DMSO vehicle control); higher = higher biomarker level / cell amount than vehicle control
[1] = compound: C=CC(=O)OCCC(F)(F)C(F)(F)C(F)(F)C(F)(F)C(F)(F)C(F)(F)C(F)(F)C(F)(F)F [8:2 Fluorotelomer acrylate]; conditions: in DMSO
Description: (§1)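 BioMAP Diversity Plus panel of 12 human primary cell co-culture systems (3C, 4H, LPS, SAg, BT, BF4T, BE3C, CASM3C, HDF3CGF, KF3CT, MyoF, Mphg). Compounds were added 1 h before stimulation and left for 24 h (MyoF 48 h; BT 72 h for soluble read-outs or 6 d for IgG). Biomarkers were read by ELISA, cytotoxicity by SRB, PBMC viability and proliferation by Alamar Blue. Each well value was divided by the mean of 8 DMSO control wells on the same plate and log10 transformed; duplicate blinded samples were tested at 4 concentrations.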

Methotrexate = compound: CN(Cc1cnc2nc(N)nc(N)c2n1)c1ccc(C(=O)N[C@@H](CCC(=O)O)C(=O)O)cc1 [Methotrexate]; conditions: in DMSO
Description: as §1

[2] = compound: FC(F)(I)C(F)(F)C(F)(F)C(F)(F)C(F)(F)C(F)(F)I [1,6-Diiodoperfluorohexane]; conditions: 6700 nM; in DMSO
Description: as §1

[3] = compound: O=C(O)C(F)(F)C(F)(F)C(F)(F)C(F)(F)C(F)(F)C(F)(F)C(F)(F)F [Ammonium perfluorooctanoate]; conditions: in DMSO
Description: as §1

Perfluorooctanoic acid = compound: O=C(O)C(F)(F)C(F)(F)C(F)(F)C(F)(F)C(F)(F)C(F)(F)C(F)(F)F [Perfluorooctanoic acid]; conditions: in DMSO
Description: as §1

[4] = compound: O=S(=O)(O)CCC(F)(F)C(F)(F)C(F)(F)C(F)(F)F [4:2 Fluorotelomer sulfonic acid]; conditions: in DMSO
Description: as §1

[5] = compound: OCCCCC(F)(F)C(F)(F)C(F)(F)C(F)(F)F [4:4 Fluorotelomer alcohol]; conditions: in DMSO
Description: as §1

Test System | level (log10) ([1]; 6700 nM) | level (log10) ([1]; 20000 nM) | level (log10) ([1]; 60000 nM) | level (log10) (Methotrexate; 1500 nM) | level (log10) (Methotrexate; 4400 nM) | level (log10) (Methotrexate; 13000 nM) | level (log10) (Methotrexate; 40000 nM) | level (log10) [2] | level (log10) ([3]; 6700 nM) | level (log10) ([3]; 20000 nM) | level (log10) ([3]; 60000 nM) | level (log10) (Perfluorooctanoic acid; 6700 nM) | level (log10) (Perfluorooctanoic acid; 20000 nM) | level (log10) (Perfluorooctanoic acid; 60000 nM) | level (log10) ([4]; 6700 nM) | level (log10) ([4]; 20000 nM) | level (log10) ([4]; 60000 nM) | level (log10) ([5]; 6700 nM) | level (log10) ([5]; 20000 nM) | level (log10) ([5]; 60000 nM)
CASM3C:M-CSF | 0.003 ± 0.0057 | 0.0095 ± 0.032 | 0.0185 ± 0.04 | 0.0285 ± 0.013 | -0.051 ± 0.027 | -0.0455 ± 0.0021 | -0.0275 ± 0.081 | -0.042 | -0.0045 ± 0.0021 | 0.011 ± 0.028 | 0.015 ± 0.05 | 0.0005 ± 0.012 | -0.004 ± 0.021 | 0.0145 ± 0.022 | -0.0265 ± 0.011 | -0.02 ± 0.0028 | 0.001 ± 0.03 | 0.0085 ± 0.011 | -0.005 ± 0.024 | 0.021 ± 0.047
HDF3CGF:EGFR | -0.003 ± 0.041 | -0.028 ± 0.031 | 0.006 ± 0.011 | -0.0035 ± 0.018 | -0.008 ± 0.0099 | -0.011 ± 0.028 | -0.021 ± 0.027 | -0.044 | -0.095 ± 0.14 | -0.005 ± 0.05 | -0.105 ± 0.087 | -0.065 ± 0.086 | -0.086 ± 0.028 | -0.0965 ± 0.044 | -0.0575 ± 0.093 | -0.042 ± 0.054 | -0.019 ± 0.079 | -0.0155 ± 0.0035 | -0.0105 ± 0.0035 | 0.0195 ± 0.05
KF3CT:SRB | -0.0005 ± 0.005 | 0.002 ± 0.0085 | 0.0105 ± 0.013 | 0.0105 ± 0.012 | -0.002 ± 0.0057 | 0.0025 ± 0.0035 | 0.009 ± 0.021 | -0.288 | -0.0125 ± 0.0035 | -0.0115 ± 0.0021 | -0.0195 ± 0.0021 | -0.005 ± 0.0014 | -0.003 ± 0.0014 | 0.007 ± 0.037 | -0.0015 ± 0.0021 | -0.0015 ± 0.0021 | 0.0035 ± 0.0092 | -0.02 ± 0.0085 | -0.011 ± 0.017 | 0.004 ± 0.018
HDF3CGF:CXCL9/MIG | -0.0115 ± 0.015 | -0.007 ± 0.011 | -0.007 ± 0.0042 | 0.002 ± 0.045 | -0.003 ± 0.023 | -0.0205 ± 0.036 | -0.0165 ± 0.057 | -0.463 | -0.0195 ± 0.0092 | -0.0085 ± 0.025 | -0.0915 ± 0.047 | 0.001 ± 0.0057 | -0.0245 ± 0.036 | -0.0095 ± 0.028 | -0.01 ± 0.02 | -0.0025 ± 0.029 | -0.023 ± 0.025 | -0.0045 ± 0.0092 | 0.0035 ± 0.0092 | 0.006 ± 0.02
HDF3CGF:TIMP-2 | -0.014 ± 0.027 | -0.0405 ± 0.0064 | -0.0295 ± 0.0092 | -0.0655 ± 0.032 | 0 ± 0.11 | -0.005 ± 0.085 | -0.0335 ± 0.15 | -0.012 | 0.0225 ± 0.015 | 0.0535 ± 0.039 | 0.047 ± 0.05 | -0.013 ± 0.014 | 0.0045 ± 0.019 | 0.033 ± 0.0042 | -0.026 ± 0.0028 | -0.0335 ± 0.016 | -0.009 ± 0.051 | -0.004 ± 0.0099 | 0.024 ± 0.028 | -0.0225 ± 0.026
MyoF:alpha-SM Actin | 0.0185 ± 0.069 | 0.0145 ± 0.063 | 0.009 ± 0.059 | -0.001 ± 0.0028 | -0.0225 ± 0.0092 | -0.008 ± 0.0071 | -0.017 ± 0.033 | -0.486 | -0.0145 ± 0.0078 | -0.016 ± 0.0071 | -0.0295 ± 0.04 | 0.014 ± 0.02 | 0.0155 ± 0.047 | -0.0035 ± 0.032 | 0 ± 0.052 | 0.022 ± 0.0028 | 0.035 ± 0.0028 | 0.025 ± 0.041 | 0.0195 ± 0.04 | 0.041 ± 0.055
BE3C:Keratin 8/18 | -0.013 ± 0.0014 | -0.014 ± 0.0085 | 0.0085 ± 0.033 | -0.0105 ± 0.047 | -0.035 ± 0.042 | -0.022 ± 0.057 | -0.024 ± 0.025 | -0.018 | -0.0195 ± 0.012 | -0.0215 ± 0.012 | -0.0225 ± 0.0035 | -0.0145 ± 0.0064 | -0.01 ± 0.0014 | 0.0065 ± 0.028 | 0.0065 ± 0.0021 | -0.002 ± 0.0014 | 0.0005 ± 0.0035 | -0.0025 ± 0.0035 | -0.012 ± 0.0042 | 0.0055 ± 0.015
lMphg:CD106/VCAM-1 | 0 ± 0.013 | -0.015 ± 0.0014 | -0.0045 ± 0.03 | -0.001 ± 0.025 | -0.016 ± 0.021 | -0.002 ± 0.0057 | -0.007 ± 0.021 | -0.025 | 0.0135 ± 0.0035 | 0.023 ± 0.0014 | -0.0105 ± 0.0021 | 0.0065 ± 0.0078 | 0.0065 ± 0.011 | 0.0025 ± 0.0092 | -0.0145 ± 0.0078 | -0.0075 ± 0.011 | -0.0135 ± 0.005 | -0.0195 ± 0.005 | -0.0045 ± 0.019 | -0.0025 ± 0.042
lMphg:CD62E/E-Selectin | 0.019 ± 0.038 | 0.0215 ± 0.0064 | 0.041 ± 0.034 | -0.009 ± 0.0099 | -0.0265 ± 0.028 | -0.0135 ± 0.019 | -0.011 ± 0.033 | 0.033 | -0.0205 ± 0.0021 | -0.003 ± 0.058 | 0.0025 ± 0.022 | -0.007 ± 0.025 | 0.013 | 0.052 ± 0.017 | -0.0235 ± 0.033 | -0.0105 ± 0.061 | -0.0105 ± 0.011 | -0.0275 ± 0.018 | -0.012 ± 0.018 | -0.0195 ± 0.04
BE3C:PAI-I | -0.0355 ± 0.0092 | -0.018 | 0.0055 ± 0.025 | -0.0595 ± 0.015 | -0.031 ± 0.045 | -0.051 ± 0.048 | -0.0665 ± 0.084 | 0.015 | 0.014 ± 0.023 | 0.0045 ± 0.005 | 0.0255 ± 0.016 | 0.001 ± 0.0042 | 0.0395 ± 0.013 | 0.041 ± 0.0028 | -0.0075 ± 0.0035 | -0.014 ± 0.0085 | -0.008 ± 0.017 | -0.026 ± 0.02 | -0.002 ± 0.031 | 0.011
CASM3C:Serum Amyloid A | -0.0075 ± 0.013 | -0.0125 ± 0.022 | 0.018 ± 0.028 | -0.0405 ± 0.015 | -0.0145 ± 0.028 | 0.002 ± 0.045 | -0.044 ± 0.068 | -0.008 | 0.0345 ± 0.022 | 0.015 ± 0.0057 | 0.0345 ± 0.012 | -0.002 ± 0.013 | 0.006 ± 0.051 | 0.022 ± 0.038 | -0.008 ± 0.017 | -0.0055 ± 0.0021 | -0.015 ± 0.041 | -0.0055 ± 0.025 | -0.01 ± 0.047 | 0.0295 ± 0.063
CASM3C:PAI-I | -0.0045 ± 0.0021 | -0.008 ± 0.0099 | 0.005 ± 0.017 | 0.004 ± 0.013 | 0.0035 ± 0.0064 | 0.0125 ± 0.0035 | 0.0105 ± 0.0021 | 0.011 | 0.0005 ± 0.00071 | -0.001 ± 0.0028 | 0.0085 ± 0.0078 | 0.003 ± 0.0085 | -0.0005 ± 0.012 | 0.01 ± 0.018 | -0.002 ± 0.0014 | -0.0015 ± 0.00071 | -0.002 ± 0.0057 | 0.017 ± 0.016 | 0.013 ± 0.023 | 0.0085 ± 0.026
HDF3CGF:Collagen III | 0.032 ± 0.024 | 0.0315 ± 0.019 | 0.086 ± 0.014 | 0.0115 ± 0.061 | -0.002 ± 0.072 | 0.004 ± 0.013 | -0.026 ± 0.086 | -0.358 | 0.0555 ± 0.032 | -0.1 ± 0.048 | -0.142 ± 0.0021 | 0.012 ± 0.011 | 0.0255 ± 0.0078 | 0.0155 ± 0.053 | -0.0795 ± 0.13 | -0.0585 ± 0.14 | -0.0265 ± 0.09 | -0.0165 ± 0.029 | -0.0105 ± 0.019 | 0.011 ± 0.05
